Source: patent US20230398125A1, “TREATING HEPATITIS” (Albireo AB, priority 2022, published 2023)
pIC50: −log10 of the molar value.

Target: T1, Human NTCP (Homo sapiens, UniProt Q14973)
T1 construct: expressed in transfected cells; peptide purchased from Pharmaron
T1 sequence (Q14973 1-349): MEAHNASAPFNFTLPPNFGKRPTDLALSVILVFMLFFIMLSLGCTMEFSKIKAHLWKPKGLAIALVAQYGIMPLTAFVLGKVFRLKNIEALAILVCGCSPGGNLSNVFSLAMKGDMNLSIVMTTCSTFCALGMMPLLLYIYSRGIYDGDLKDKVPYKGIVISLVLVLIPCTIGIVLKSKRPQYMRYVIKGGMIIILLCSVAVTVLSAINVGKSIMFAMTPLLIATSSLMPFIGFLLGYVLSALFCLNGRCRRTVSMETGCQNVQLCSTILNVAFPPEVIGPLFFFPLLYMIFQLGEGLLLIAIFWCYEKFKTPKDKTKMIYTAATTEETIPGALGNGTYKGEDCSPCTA
Assay: [3H]TC transport in NTCP-HEK293 cells
Assay type: cell-based
Conditions: read-out: IC50 [3H]taurocholic acid uptake
Procedure: Human embryonic kidney (HEK293) cells were stably transfected with human NTCP, C-terminally tagged with the FLAG epitope (here referred to as NTCP-HEK293 cells). Cells were maintained at 37° C., 5% CO2 and 95% humidity in DMEM/F-12 medium (Thermo Fisher Scientific, Waltham, Mass., USA) supplemented with 10% fetal calf serum (Sigma-Aldrich, St. Louis, Mo., USA), 4 mM L-glutamine, and penicillin/streptomycin. HepG2 cells stably transfected with NTCP-FLAG (here referred to as NTCP-HepG2) were cultured under the same conditions in DMEM with all supplements listed above, except for L-glutamine. […]
Bile acid transport measurements were performed in the NTCP-HEK293 cells with tritium-labelled taurocholic acid (here referred to as [^3H]TC) (20 Ci/mmol, 0.09 mCi/mL, Perkin Elmer, Waltham, USA). […] Cell-associated radioactivity of [^3H]TC or [^3H]preS1 was quantified by liquid scintillation counting in a Packard Microplate Scintillation Counter TopCount NXT (Packard Instrument Company, Meriden, USA). Transport rates and [^3H]preS1 binding were determined in counts per minute (cpm). The mean of the 0% control was subtracted and the net [^3H]TC transport rates and net [^3H]preS1 binding rates, respectively, were expressed as % of control. IC50 values were calculated from quadruplicate determinations by GraphPad Prism 6 (GraphPad, San Diego, Calif., USA). […]

Compound: CCCCC1CN(c2ccccc2)c2cc(SC)c(O/C=C(\F)C(=O)O)cc2S(=O)(=O)N1C (stereo not shown) [Compound 1, (Z)-3-((3-butyl-2-methyl-7-(methylthio)-1,1-dioxido-5-phenyl-2,3,4,5-tetrahydro-1,2,5-benzothiadiazepin-8-yl)oxy)-2-fluoroacrylic acid]
- pIC50: 6.73
